Experimental data from paper PMC6651611 (Slas Discovery, 2019).

Assays:
[1] = target: CYP130A1 (CYP130A1-BM3R) (Mycobacterium tuberculosis, UniProt P9WPN5); test: biochemical
[2] = target: CYP124A1 (Mycobacterium tuberculosis, UniProt P9WPP3); format: biochemical
[3] = target: CYP125A1 (Mycobacterium tuberculosis, UniProt P9WPP1); format: biochemical
[4] = test system: O=C(O)[C@H]1CSC(c2nc3ccc(OCc4ccccc4)cc3s2)=N1; test: purified protein
[5] = test system: COc1ccc2nc(C3=N[C@@H](C(=O)OCCO)CS3)sc2c1; test: purified protein

## CC(=O)N1CCN(c2ccc(OC[C@H]3CO[C@](Cn4ccnc4)(c4ccc(Cl)cc4Cl)O3)cc2)CC1 (racemic) [ketoconazole]
[1]
  IC50: 100 ± 20 nM

## COc1ccc2nc(C3=N[C@@H](C(=O)OCCO)CS3)sc2c1 [Luciferin-ME EGE]
[2]
  luminescence turnover assay with purified enzyme (S/B 7.3): Luciferin-ME EGE was the only pro-luciferin substrate metabolized by these three cholesterol-metabolizing Mtb CYPs
[3]
  luminescence turnover assay with purified enzyme (S/B 7.8): Luciferin-ME EGE was the only pro-luciferin substrate metabolized by these three cholesterol-metabolizing Mtb CYPs

## Clc1ccc(COC(Cn2ccnc2)c2ccc(Cl)cc2Cl)cc1 (stereo not shown) [econazole]
[1]
  IC50: 50 ± 10 nM

## Clc1ccc(COC(Cn2ccnc2)c2ccc(Cl)cc2Cl)c(Cl)c1 (stereo not shown) [miconazole]
[1]
  IC50: 17 ± 3 nM

## CYP130A1 (CYP130A1-BM3R) (Mycobacterium tuberculosis H37Rv)
[4]
  Km: 37 ± 2.4 µM
  kcat: 0.000667 ± 1.33e-05 s⁻¹
  kcat/Km: 18.3 M⁻¹ s⁻¹

## CYP142A1 (Mycobacterium tuberculosis H37Rv)
[5]
  Km: 270 ± 22 µM
  kcat/Km: 0.00333 M⁻¹ s⁻¹
